Experiment: Metabolic stability in human liver microsomes;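 also: NADPH-supplemented incubation in 100 mM potassium phosphate buffer, compound loss sampled at 0, 5, 10, 20, 30 and 60 min by LC-MS/MS, first-order kinetics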
Format: in vitro ADME
Conditions: LM Clint; human liver microsomes 0.5 mg protein/mL, test compound 1 μM, 37° C., up to 60 min
Method: Test Compound and Control Working Solution Preparation: Working solution: 5 μL of compound and control stock solution (10 mM in dimethyl sulfoxide (DMSO)) were diluted with 495 µL of acetonitrile (ACN) (intermediate solution concentration: 100 μM, 99% ACN).
Preparation Procedure: The appropriate amount of NADPH powder was weighed and diluted into a 10 mM MgCl2 solution (working solution concentration: 10 unit/mL; final concentration in reaction system: 1 unit/mL).
Preparation Procedure: The appropriate concentrations of microsome working solutions were prepared in 100 mM potassium phosphate buffer.
Stop Solution Preparation: Cold (4° C.) acetonitrile (ACN) containing 200 ng/mL tolbutamide and 200 ng/mL labetalol as internal standards (IS) was used as the stop solution.
Dilute liver microsomes to 0.56 mg/mL in 100 mM phosphate buffer.
Transfer 445 μL microsome working solutions (0.56 mg/mL) into pre-warmed ‘Incubation’ plates T60 and NCF60, Then pre-incubate ‘Incubation’ plates T60 and NCF60 for 10 min at 37° C. with constant shaking. Transfer 54 μL liver microsomes to blank plate, then add 6 μL NAPDH cofactor to blank plate, and then add 180 μL quenching solution to blank plate.
2.5.4 Add 5 μL compound working solution (100 μM) into ‘incubation’ plates (T60 and NCF60) containing microsomes and mix 3 times thoroughly.
For the NCF60 plate, add 50 μL of buffer and mix 3 times thoroughly. Start timing; plate will be incubated at 37° C. for 60 min while shaking.
In ‘Quenching’ plate T0, add 180 μL quenching solution and 6 μL NAPDH cofactor. Ensure the plate is chilled to prevent evaporation.
For the T60 plate, mix 3 times thoroughly, and immediately remove 54 μL mixture for the 0-min time point to ‘Quenching’ plate. Then add 44 μL NAPDH cofactor to incubation plate (T60). Start timing; plate will be incubated at 37° C. for 60 min while shaking.
At 5, 10, 20, 30, and 60 min, add 180 μL quenching solution to ‘Quenching’ plates, mix once, and serially transfer 60 μL sample from T60 plate per time point to ‘Quenching’ plates.
For NCF60: mix once, and transfer 60 μL sample from the NCF60 incubation to ‘Quenching’ plate containing quenching solution at the 60-min time point.
All sampling plates are shaken for 10 min, then centrifuged at 4000 rpm for 20 minutes at 4° C.
Transfer 80 μL supernatant into 240 μL HPLC water, and mix by plate shaker for 10 min.
Each bioanalysis plate was sealed and shaken for 10 minutes prior to LC-MS/MS analysis.
The equation of first order kinetics was used to calculate T1/2 and Intrinsic clearance (CLint mic) in (μL/min/mg).

Compound | Human Liver Microsome (μM/min/mg)
CC(C)n1cnc(-c2ccc(F)cc2)c1-c1nc(C(=O)Nc2ccc(CCCCC(=O)O)cc2)c[nH]1 [Compound 132, 5-(4-(5′-(4-fluorophenyl)-3′-isopropyl-1H,3′H-[2,4′-biimidazole]-4-carboxamido)phenyl)pentanoic acid] | +++ (1-10 μM/min/mg as +++)
CC(C)n1cnc(-c2ccc(F)cc2)c1-c1ccc(C(=O)Nc2ccc(CCO)cc2)o1 [Compound 126, 5-(4-(4-fluorophenyl)-1-isopropyl-1H-imidazol-5-yl)-N-(4-(2-hydroxyethyl)phenyl)furan-2-carboxamide] | + (>100 μM/min/mg as)
CC(C)n1cnc(-c2ccc(F)cc2)c1-c1nc(C(=O)Nc2ccc(C(=O)O)cc2)c[nH]1 [Compound 113, 4-(5′-(4-fluorophenyl)-3′-isopropyl-1H,3′H-[2,4′-biimidazole]-4-carboxamido)benzoic acid] | +++ (1-10 μM/min/mg as +++)
CN1CCN(c2ccc(NC(=O)c3c[nH]c(-c4c(-c5ccc(F)cc5)ncn4CC(F)(F)F)n3)cc2)CC1 [Compound 120, 5′-(4-fluorophenyl)-N-(4-(4-methylpiperazin-1-yl)phenyl)-3′-(2,2,2-trifluoroethyl)-1H,3′H-[2,4′-biimidazole]-4-carboxamide] | ++ (10-100 μM/min/mg as ++)
CC(C)n1cnc(-c2ccc(F)cc2)c1-c1nc(C(=O)Nc2ccc(N(CCO)CCO)cc2)c[nH]1 [Compound 116, N-(4-(bis(2-hydroxyethyl)amino)phenyl)-5′-(4-fluorophenyl)-3′-isopropyl-1H,3′H-[2,4′-biimidazole]-4-carboxamide] | +++ (1-10 μM/min/mg as +++)
CC(C)n1cnc(-c2ccc(F)cc2)c1-c1nc(C(=O)Nc2ccc(CCO)cc2)c[nH]1 [Compound 111, 5′-(4-fluorophenyl)-N-(4-(2-hydroxyethyl)phenyl)-3′-isopropyl-1H,3′H-[2,4′-biimidazole]-4-carboxamide] | ++ (10-100 μM/min/mg as ++)
O=C(Nc1ccc(N2CCN(CCO)CC2)cc1)c1c[nH]c(-c2c(-c3ccc(F)cc3)ncn2[C@H]2CC[C@H](O)CC2)n1 [Compound 158, 5′-(4-fluorophenyl)-3′-((1r,4r)-4-hydroxycyclohexyl)-N-(4-(4-(2-hydroxyethyl)piperazin-1-yl)phenyl)-1H,3′H-[2,4′-biimidazole]-4-carboxamide] | +++ (1-10 μM/min/mg as +++)
CN1CCN(c2ccc(NC(=O)c3c[nH]c(-c4c(-c5ccc(F)cc5)ncn4C4CCC(O)CC4)n3)cc2)CC1 (stereo not shown) [Compound 172] | +++ (1-10 μM/min/mg as +++)
C[N+]1([O-])CCN(c2ccc(NC(=O)c3c[nH]c(-c4c(-c5ccc(F)cc5)ncn4CC(F)(F)F)n3)cc2)CC1 [Compound 166, 4-(4-(5′-(4-fluorophenyl)-3′-(2,2,2-trifluoroethyl)-1H,3′H-[2,4′-biimidazole]-4-carboxamido)phenyl)-1-methylpiperazine 1-oxide] | +++ (1-10 μM/min/mg as +++)
CC(C)n1cnc(-c2ccc(F)cc2)c1-c1nc(C(=O)Nc2ccc(N3CCN(S(N)(=O)=O)CC3)cc2)c[nH]1 [Compound 97, 5′-(4-fluorophenyl)-3′-isopropyl-N-(4-(4-sulfamoylpiperazin-1-yl)phenyl)-1H,3′H-[2,4′-biimidazole]-4-carboxamide] | + (>100 μM/min/mg as)
CC(C)n1cnc(-c2ccc(F)c(F)c2)c1-c1nc(C(=O)Nc2ccc(N3CCN(C)CC3)cc2)c[nH]1 [Compound 156, 5′-(3,4-difluorophenyl)-3′-isopropyl-N-(4-(4-methylpiperazin-1-yl)phenyl)-1H,3′H-[2,4′-biimidazole]-4-carboxamide] | ++ (10-100 μM/min/mg as ++)
CC(C)n1cnc(-c2ccc(F)cc2)c1-c1ccc(C(=O)Nc2ccc(N3CCN(C)CC3)cc2)o1 [Compound 121, 5-(4-(4-fluorophenyl)-1-isopropyl-1H-imidazol-5-yl)-N-(4-(4-methylpiperazin-1-yl)phenyl)furan-2-carboxamide] | + (>100 μM/min/mg as)
CC(C)n1cnc(-c2ccc(Cl)cc2)c1-c1nc(C(=O)Nc2ccc(N3CCN(CCO)CC3)cc2)c[nH]1 [Compound 139, 5′-(4-chlorophenyl)-N-(4-(4-(2-hydroxyethyl)piperazin-1-yl)phenyl)-3′-isopropyl-1H,3′H-[2,4′-biimidazole]-4-carboxamide] | ++ (10-100 μM/min/mg as ++)
CC(C)n1cnc(-c2ccc(F)cc2)c1-c1nc(C(=O)Nc2ccc(N3CCN(CCO)CC3)cc2)c[nH]1 [Compound 117, 5′-(4-fluorophenyl)-N-(4-(4-(2-hydroxyethyl)piperazin-1-yl)phenyl)-3′-isopropyl-1H,3′H-[2,4′-biimidazole]-4-carboxamide] | ++ (10-100 μM/min/mg as ++)
CC(C)n1cnc(-c2ccc(Cl)cc2)c1-c1nc(C(=O)Nc2ccc(CCC(=O)O)cc2)c[nH]1 [Compound 137, 3-(4-(5′-(4-chlorophenyl)-3′-isopropyl-1H,3′H-[2,4′-biimidazole]-4-carboxamido)phenyl)propanoic acid] | +++ (1-10 μM/min/mg as +++)
CC(C)n1cnc(-c2ccc(F)cc2)c1-c1cccc(C(=O)Nc2ccc(N3CCN(C)CC3)cc2)n1 [Compound 127] | + (>100 μM/min/mg as)
CC(C)n1cnc(-c2ccc(F)cc2)c1-c1cccc(C(=O)Nc2ccc(CCC(=O)O)cc2)n1 [Compound 131] | +++ (1-10 μM/min/mg as +++)
CC(C)n1cnc(-c2ccc(F)cc2)c1-c1cccc(C(=O)Nc2ccc(N3CCN(CCO)CC3)cc2)n1 [Compound 128] | + (>100 μM/min/mg as)
CN1CCN(c2ccc(NC(=O)c3c[nH]c(-c4c(-c5ccc(F)cc5)ncn4C)n3)cc2)CC1 [Compound 119, 5′-(4-fluorophenyl)-3′-methyl-N-(4-(4-methylpiperazin-1-yl)phenyl)-1H,3′H-[2,4′-biimidazole]-4-carboxamide] | ++ (10-100 μM/min/mg as ++)
CN1CCN(c2ccc(NC(=O)c3c[nH]c(-c4c(-c5ccc(F)cc5)ncn4CC(C)(C)C)n3)cc2)CC1 [Compound 135, 5′-(4-fluorophenyl)-N-(4-(4-methylpiperazin-1-yl)phenyl)-3′-neopentyl-1H,3′H-[2,4′-biimidazole]-4-carboxamide] | + (>100 μM/min/mg as)
CC(C)n1cnc(-c2ccc(F)cc2)c1-c1nc(C(=O)Nc2ccc(N3CCNCC3)cc2)c[nH]1 [Compound 181, 5′-(4-fluorophenyl)-3′-isopropyl-N-(4-(piperazin-1-yl)phenyl)-1H,3′H-[2,4′-biimidazole]-4-carboxamide] | ++ (10-100 μM/min/mg as ++)
CC(C)n1cnc(-c2ccc(F)cc2)c1-c1nc(C(=O)Nc2ccc(CCC(=O)O)cc2)c[nH]1 [Compound 102, 3-(4-(5′-(4-fluorophenyl)-3′-isopropyl-1H,3′H-[2,4′-biimidazole]-4-carboxamido)phenyl)propanoic acid] | +++ (1-10 μM/min/mg as +++)
CN1CCN(c2ccc(NC(=O)c3c[nH]c(-c4c(-c5ccc(F)cc5)ncn4[C@H]4CC[C@H](O)CC4)n3)cc2)CC1 [Compound 159, 5′-(4-fluorophenyl)-3′-((1r,4r)-4-hydroxycyclohexyl)-N-(4-(4-methylpiperazin-1-yl)phenyl)-1H,3′H-[2,4′-biimidazole]-4-carboxamide] | ++ (10-100 μM/min/mg as ++)
CC(C)n1cnc(-c2ccc(C(F)(F)F)cc2)c1-c1nc(C(=O)Nc2ccc(N3CCN(C)CC3)cc2)c[nH]1 [Compound 142, 3′-isopropyl-N-(4-(4-methylpiperazin-1-yl)phenyl)-5′-(4-(trifluoromethyl)phenyl)-1H,3′H-[2,4′-biimidazole]-4-carboxamide] | + (>100 μM/min/mg as)
CC(C)n1cnc(-c2ccc(F)c(F)c2)c1-c1nc(C(=O)Nc2ccc(N3CCN(CCO)CC3)cc2)c[nH]1 [Compound 146, 5′-(3,4-difluorophenyl)-N-(4-(4-(2-hydroxyethyl)piperazin-1-yl)phenyl)-3′-isopropyl-1H,3′H-[2,4′-biimidazole]-4-carboxamide] | ++ (10-100 μM/min/mg as ++)
CC(C)n1cnc(-c2ccc(F)cc2)c1-c1nc(C(=O)Nc2ccc(N3CCN(C(N)=O)CC3)cc2)c[nH]1 [Compound 99, N-(4-(4-carbamoylpiperazin-1-yl)phenyl)-5′-(4-fluorophenyl)-3′-isopropyl-1H,3′H-[2,4′-biimidazole]-4-carboxamide] | ++ (10-100 μM/min/mg as ++)
O=C(Nc1ccc(N2CCNCC2)cc1)c1c[nH]c(-c2c(-c3ccc(F)cc3)ncn2CC(F)(F)F)n1 [Compound 167, 5′-(4-fluorophenyl)-N-(4-(piperazin-1-yl)phenyl)-3′-(2,2,2-trifluoroethyl)-1H,3′H-[2,4′-biimidazole]-4-carboxamide] | ++ (10-100 μM/min/mg as ++)
CN1CCN(c2ccc(NC(=O)c3c[nH]c(-c4c(-c5ccc(F)cc5)ncn4C(F)F)n3)cc2)CC1 [Compound 130, 3′-(difluoromethyl)-5′-(4-fluorophenyl)-N-(4-(4-methylpiperazin-1-yl)phenyl)-1H,3′H-[2,4′-biimidazole]-4-carboxamide] | ++ (10-100 μM/min/mg as ++)

From patent US11530199B2, “Analogs for the treatment of disease” (Insilico Medicine IP Limited, priority 2021, dated 2022)
